Measurements reported in patent publication US5519006A, “Phosphonated arylethanolamine compounds with anti-hyperglycemic and/or anti-obesity activity” (SmithKline Beecham plc, priority 1992, dated 1996).

Legend:
[1] = test system: Rat white adipocytes; assay: Lipolysis stimulated in rat white adipocytes (glycerol release); format: cell-based; details: Adipocyte, 0.5 h, 30 minutes
Protocol: Rat white adipocytes were prepared by collagenase digestion as described by Rodbell (1964) with the modification of Honnor et al. (1985), in that adenosine (200 nM) was included in the preparation to inhibit basal lipolysis.
Lipolysis stimulated by β-agonists was measured over 30 minutes in medium where the adenosine concentration was controlled; the medium included (-)-N^6 -(2-phenylisopropyl)adenosine (100 nM)+deaminase as decribed by Honnor et al. (1985). The incubation was stopped by addition of trichloracetic acid (0.2 ml of 10% w/v) to 1 ml of cells. Glycerol was measured by the fluorimetric method of Boobis and Maugham (1983).

[2] = biological target: T1, Rat β1 adrenoceptor (Rattus norvegicus, UniProt P18090); assay: β1-Adrenoceptor agonism, increase in rate of spontaneously beating right atria; format: cell-based, Rat (female Sprague-Dawley); details: in vitro, 37° C., Krebs-Henseleit solution
T1 construct: Spontaneously beating right atria were removed; from tissue; host or cells: right atria of female Sprague-Dawley rats
Protocol: (§1) Agonist Activity at Rat β1 and β2 Adrenoceptors In Vitro
Female Sprague-Dawley rats (150-250 g) were killed by a blow to the head and exsanguinated. Spontaneously beating right atria were removed by the method of Broadley and Lumley (1977) and mounted on a glass tissue holder. Each tissue was placed in 30 ml organ baths at 37° C. containing Kreb's-Henseleit solution. Each atrium was attached to an isometric transducer by cotton and placed under an initial resting tension of 1 g. Rate recordings from the spontaneous beating atria were obtained from the tension signal using a Lectromed Type 4522 ratemeter. All traces were recorded on a Lectromed M4 chart recorder. β-adrenoceptor agonists were then added to the Krebs medium in a cumulative fashion and the results expressed as a percentage increase in atrial rate.
(§2) Agonist EC50 (atria) and IC50 (uteri) were calculated as the concentration of agonist producing 50% of their maximum increase in atrial rate or uterine relaxation. Relative intrinsic activity expressed as the maximal responses to test agonists relative to isoprenaline (=1.0) in both atria and uteri.

[3] = biological target: T2, Rat β2 adrenoceptor (Rattus norvegicus, UniProt P10608); assay: β2-Adrenoceptor agonism, inhibition of contraction of K+-pre-contracted uterine strips; format: cell-based; details: pre-contracted with 40 mM K+
T2 construct: Rat uterine horns were removed and bisected longitudinally; from tissue; host or cells: rat uterine horns (uterine strips)
Protocol: as §1
Rat uterine horns were removed and bisected longitudinally. Each tissue was tied to a glass tissue holder and placed in Krebs-Henseleit solution in a 30 ml organ bath as before. Tissues were placed under a resting tension of 1 g and allowed to equilibrate. Each uterine strip was pre-contracted by the addition of 40 mM K^+ to the bath to produced a steady tonic contraction. β-agonists were then added to the bath in a cumulative manner and results were expressed as percentage inhibition of contraction.
as §2

T1 sequence (P18090 whole entry): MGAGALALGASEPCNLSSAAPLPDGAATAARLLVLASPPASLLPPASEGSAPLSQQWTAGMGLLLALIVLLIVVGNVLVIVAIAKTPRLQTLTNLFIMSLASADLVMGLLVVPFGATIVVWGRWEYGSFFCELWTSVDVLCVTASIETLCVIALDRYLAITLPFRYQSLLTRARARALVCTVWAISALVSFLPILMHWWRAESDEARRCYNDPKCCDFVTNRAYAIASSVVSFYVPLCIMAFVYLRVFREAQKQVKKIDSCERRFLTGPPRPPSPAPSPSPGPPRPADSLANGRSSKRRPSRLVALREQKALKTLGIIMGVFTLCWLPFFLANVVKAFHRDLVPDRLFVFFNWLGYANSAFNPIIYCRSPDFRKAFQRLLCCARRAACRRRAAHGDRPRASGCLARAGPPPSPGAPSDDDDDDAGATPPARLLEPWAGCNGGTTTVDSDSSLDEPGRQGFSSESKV
T2 sequence (P10608 whole entry): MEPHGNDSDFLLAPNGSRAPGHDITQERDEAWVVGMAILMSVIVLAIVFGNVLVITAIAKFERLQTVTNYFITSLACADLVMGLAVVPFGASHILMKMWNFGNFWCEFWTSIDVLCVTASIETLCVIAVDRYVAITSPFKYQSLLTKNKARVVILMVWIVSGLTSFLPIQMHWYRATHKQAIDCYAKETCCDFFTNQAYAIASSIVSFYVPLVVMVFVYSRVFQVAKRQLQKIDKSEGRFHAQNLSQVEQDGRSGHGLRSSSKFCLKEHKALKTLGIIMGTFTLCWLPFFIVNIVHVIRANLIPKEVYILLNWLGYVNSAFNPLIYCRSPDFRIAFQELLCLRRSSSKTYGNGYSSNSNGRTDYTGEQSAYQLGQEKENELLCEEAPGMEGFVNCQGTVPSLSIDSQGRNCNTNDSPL

## CCOP(=O)(O)COc1ccc(C[C@@H](C)NC[C@H](O)c2cccc(Cl)c2)cc1 (relative stereo) [Example 2, (RR,SS)-Sodium Ethyl 4-[2-[2-(3-chlorophenyl)-2-hydroxyethylamino]propyl]phenoxymethylphosphonate]
[1]
  EC50: 0.077 µM
[1]; read-out: Intrinsic Activity
  Emax: 95%
[2]
  Ki: 37600 nM
[3]
  Ki: 10000 nM
